From paper PMC7417721, “Cell cycle exit during bortezomib‐induced osteogenic differentiation of mesenchymal stem cells was mediated by Xbp1s‐upregulated p21^Cip1 and p27^Kip1” (Journal of Cellular and Molecular Medicine, 2020)
Like-named read-outs stand apart in the source and are kept apart here.

Experiments:
[1] = system: cyclin D3, cyclin E1, Cdk2, Cdk4, p21Cip1, p27Kip1 in mBM-MSCs; assay: Western blotting of cell cycle regulatory components (cyclins, CDKs, CKIs); format: cell-based, mouse; conditions: 24 h
Procedure: (§1) Western blotting was performed as described previously. ^16 Briefly, mBM‐MSCs were cultured with indicated doses of bortezomib for 24 h; then, the cells were lysed in radioimmunoprecipitation assay (RIPA) buffer. Equal amount of proteins was loaded on 10% sodium dodecyl sulphate‐polyacrylamide gel electrophoresis (SDS‐PAGE) gel and was then electrotransferred to polyvinylidene difluoride (PVDF) membrane immunoblotted for specific primary antibodies. Immunoblots were visualized using horseradish peroxidase (HRP)‐conjugated secondary antibodies (Jackson ImmunoResearch Laboratories, West Grove, PA, USA) and the enhanced chemiluminescence (ECL) Western Blot Detection Kit (Phygene Life Sciences, Fuzhou, Fujian, China). The chemiluminescent blots were captured by using digital imaging with a charge‐coupled device (CCD) camera system MiniChemi 610 and analysed by Lane 1D™ analysis software (Sage, Beijing, China).

[2] = system: Grp78, Chop, Xbp1s, Atf4 in mBM-MSCs; assay: Western blotting of ER stress signalling proteins; format: cell-based, mouse; conditions: 24 h
Procedure: as §1

[3] = system: mBM-MSCs; assay: Cell cycle analysis (propidium iodide, flow cytometry); format: cell-based, mouse; conditions: 24 h; for proportion of S phase cells: mean ± SEM of three experiments (control 32.017 ± 1.991); for percentage of cells in G0/G1 phase: mean ± SEM of three experiments (control 55.14 ± 5.132)
Procedure: mBM‐MSCs (5 × 10^5 cells) treated with various concentrations of bortezomib for 24 h were harvested, washed with PBS solution, fixed in 70% ethanol and kept at −20°C overnight. Cells were then resuspended in a buffer containing […] propidium iodide and […] RNase A (Solarbio Life Sciences, Beijing, China). Samples were analysed using a BD FACSCanto II flow cytometer. Data were acquired and analysed using CellQuest and ModFit software (BD Biosciences, San Jose, CA, USA).

[4] = system: p21Cip1 and p27Kip1 mRNA in mBM-MSCs; assay: Real-time PCR of p21Cip1 and p27Kip1 mRNA; format: cell-based, mouse; conditions: 24 h
Procedure: Total RNA from cells was extracted using Ultrapure RNA Kit (DNase I) (CWBIO, Beijing, China) according to the manufacturer's instructions. Reverse transcription was performed using HiFiScript cDNA Synthesis Kit (CWBIO, Beijing, China). Real‐time PCR was performed using UltraSYBR Mixture (CWBIO, Beijing, China) and a CFX96™ Real‐Time PCR Detection System (Bio‐Rad, Hercules, CA, USA). The thermal cycling conditions included 2 min at 50°C and 10 min at 95°C, followed by 40 cycles of 95°C for 15 s, 58°C for 30 s and 72°C for 30 s. Mouse β‐actin was used as internal control. The relative expression levels of each gene were analysed using the 2^‐ΔΔCt method. The primers were designed using Primer3Plus platform (http://www.bioinformatics.nl/primer3plus) and synthesized by Sangon Biotech (Shanghai, China).

[5] = system: mBM-MSCs; assay: MTT cell viability assay; conditions: for IC50: Mus musculus, read-out: IC50, cell viability
Procedure: mBM‐MSCs were seeded at a cell density of 5 × 10^3 cells/mL in 96‐well plates and allowed to attach to the wells for 24 h. Cells were then treated with various concentrations of bortezomib. After 24‐h and 48‐h treatment, 10 µL of 3‐(4,5‐dimethylthiazol‐2‐yl)‐2,5‐diphenyltetrazolium bromide (MTT) solution (Sigma‐Aldrich, Burlington, MA, USA) was added to each well to a final concentration of 0.5 mg/mL. The supernatant medium was then discarded, and a volume of 150 µL of DMSO was added to each well to lyse the crystal. The plates were agitated for 15 min to ensure the dissolution of any remaining crystals. The absorbance in the relevant wells was measured at 490 nm using an Ultra Microplate Reader (ELx800, BioTek Instruments, Winooski, VT, USA). Each experiment was reproduced three times in duplicate.

[6] = system: mBM-MSCs; assay: Alizarin Red S staining of mineralized matrix (osteogenic differentiation); format: cell-based, mouse; conditions: 8 days
Procedure: mBM‐MSCs were plated in 35‐mm‐diameter culture dishes and grown in DMEM containing 10% FBS, 100 U/mL penicillin, 100 μg/mL streptomycin, and 2 mM L‐glutamine at 37°C in a humidified incubator with 5% CO2 in the air. When cell density reached 70%‐80% confluence, the cells were subsequently cultured in the presence or absence of bortezomib at the indicated concentrations for 8 days. The culture medium was changed every 3 days. mBM‐MSCs cultured in an osteogenic induction media containing […] ascorbic acid and 10 mM β‐glycerophosphate sodium were used as a positive control. For Alizarin Red S (ARS) (Solarbio Life Sciences, Beijing, China) staining, mBM‐MSCs were fixed with 4% formaldehyde for 10 min, then rinsed twice with phosphatebuffered saline (PBS) at room temperature. The cells were then stained with 1% ARS (pH 4.2) for up to 15 min at room temperature. Images of mBM‐MSCs stained with ARS were captured and stored digitally.

[7] = system: mBM-MSCs; assay: EdU cell proliferation assay (flow cytometry); format: cell-based, mouse; conditions: various concentrations, 24 h
Procedure: 5‐ethynyl‐2′‐deoxyuridine (EdU) incorporation assay was performed to measure cell proliferation with the kit (Molecular Probes, Eugene, OR, USA) according to the manufacturer's instructions. Briefly, mBM‐MSCs were seeded and grown at a density of 70%‐80% confluence in 35‐mm culture dishes and then treated with various concentrations of bortezomib for 24 h. EdU was added to the culture media 4 h before the harvest. The cells were detected by flow cytometry using a BD FACSCanto II instrument. Data were analysed using FlowJo 7.6.2 software (Tree Star, Ashland, OR, USA).

[8] = system: Runx2, Sp7, Col1A1, ALP, OCN/BGLAP in mBM-MSCs; assay: Western blotting of osteogenesis-related proteins; format: cell-based, mouse; conditions: indicated concentrations, 24 h, Figure S1
Procedure: as §1

[9] = MKC3946 10 nM with bortezomib 2.5 nM

Cn1cc(-c2ccc3c(c2)CCN3C(=O)Cc2cccc(C(F)(F)F)c2)c2c(N)ncnc21 [GSK2606414]
expression of p21Cip1 (protein) ([1]; in the presence of bortezomib): no significant effects | expression of p27Kip1 (protein) ([1]; in the presence of bortezomib): no significant effects | Atf4 (protein) ([2]; in the presence of bortezomib): marked decrease

CN1CCN(C(=O)c2ccc(-c3ccc4c(C=O)c(O)ccc4c3)s2)CC1 [MKC3946]
cell cycle distribution ([3]; 10 nM MKC3946 alone, Figure S2): no effects | percentage of S phase ([3]; combination of 10 nM MKC3946 with 2.5 nM bortezomib, Figure S2): significantly decreased | expression of p21Cip1 (protein) ([1]; in the presence of bortezomib): decrease | expression of p27Kip1 (protein) ([1]; in the presence of bortezomib): decrease | bortezomib-induced Xbp1s (protein) ([2]; in the presence of bortezomib): aborted | mRNA level of p21Cip1 [4, 9]: aborted up‐regulation | mRNA level of p27Kip1 [4, 9]: aborted up‐regulation

CC(C)C[C@H](NC(=O)[C@H](Cc1ccccc1)NC(=O)c1cnccn1)B(O)O [bortezomib, Bortezomib]
IC50 ([5]; 24 h): 8.89 nM | IC50 ([5]; 48 h): 6.64 nM | doses resulting in cytotoxicity to mBM-MSCs ([5]; mBM-MSCs, MTT, 24 h and 48 h): higher than 5 nM | calcium deposition (ARS staining) versus control cells ([6]; 2.5 nM): much higher amounts of calcium phosphate crystals than the control cells | calcium deposition (ARS staining) versus control cells ([6]; 5 nM): much higher amounts of calcium phosphate crystals than the control cells | numbers of EdU-positive mBM-MSCs [7]: dose‐dependently decreased | proportion of cells in the G2/M phase ([3]; 2.5 nM and 5 nM): no significant change | proportion of S phase cells ([3]; 2.5 nM): 21.807 ± 2.844% | percentage of cells in G0/G1 phase ([3]; 2.5 nM): 67.36 ± 6.067% | proportion of S phase cells ([3]; 5 nM): 19.940 ± 4.321% | percentage of cells in G0/G1 phase ([3]; 5 nM): 68.117 ± 2.743% | expression of Col1A1 [8]: induce the expression | expression of Runx2 [8]: induce the expression | expression of Sp7 [8]: induce the expression | expression of alkaline phosphatase (ALP) [8]: induce the expression | expression of osteocalcin (OCN/BGLAP) [8]: induce the expression | expression of Cdk2 (protein) ([1]; indicated concentrations): markedly decreased | expression of Cdk4 (protein) ([1]; indicated concentrations): markedly decreased | expression of cyclin D3 (protein) ([1]; indicated concentrations): no effects | expression of cyclin E1 (protein) ([1]; indicated concentrations): no effects | expression of p21Cip1 (protein) ([1]; indicated concentrations): significantly increased | expression of p27Kip1 (protein) ([1]; indicated concentrations): significantly increased | expression of Atf4 ([2]; indicated concentrations): activated | expression of ER stress marker Chop ([2]; indicated concentrations): increased expression levels | expression of ER stress marker Grp78 ([2]; indicated concentrations): increased expression levels | expression of Xbp1s ([2]; indicated concentrations): activated | mRNA level of p21Cip1 ([4]; 2.5 nM): significantly up‐regulated | mRNA level of p27Kip1 ([4]; 2.5 nM): significantly up‐regulated
